According to patent US20040175722A1, “Methods and compositions for reducing screening in oligonucleotide-directed nucleic acid sequence alteration” (priority 2002, published 2004):

Key:
human β-globin gene [1] = experiment: Dual oligonucleotide experiment: screen of hygromycin-resistant colonies for alteration of the β-globin target in the βS YAC (PCR, SNaPshot); conditions: in hygromycin-selected population; with or without Rad51 overexpression
human β-globin gene [2] = experiment: Dual targeting protocol: second-site editing of the YAC β-globin gene in hygromycin-resistant colonies (SNaPshot, sequencing); conditions: RAD51 overexpression; HU and TSA
[3] = test system: mutant hygromycin resistance gene in Mata+IntHYG(rep)eGFP; experiment: Yeast cell targeting assay: oligonucleotide-directed alteration of the integrated hygromycin-eGFP target; assay type: cell-based; conditions: for Alteration per 10^5 Aureobasidin^R colonies: average of four experiments with standard deviation
[4] = test system: mutated Hyg(rep)eGFP target in Mata-intHyg(rep)eGFP/βYAC; experiment: Dual oligonucleotide experiment: conversion efficiency for the hygromycin target (Example 2); assay type: cell-based, yeast
[5] = test system: chromosomal hygromycin mutant gene in LSY678IntHyg(rep)β cells; experiment: Dual targeting protocol: correction efficiency (C.E.) of the chromosomal hygromycin mutation (Example 4); assay type: cell-based, yeast; conditions: LSY678IntHyg(rep)β + RAD51 expression plasmid; HU and TSA; compared with FIG. 3

Row | Substance | alteration efficiency of the β-globin gene relative to alteration of the hygromycin target (human β-globin gene [1]) | Fold correction (relative to Hyg3S/74T) [3] [x] | Alteration per 10^5 Aureobasidin^R colonies [3] | further results
1 | 5′-T*A*A* CGGCAGACTTCTCCACAGGAGTCAGGTGCACCGTGGTGTCTGTTTGAGGTTGCTAGTGAACACAG*T *T*G-3′ [βS-378m] | approximately 10 fold |  |  | cells bearing the corrected hygromycin that also contain the edited β-globin gene (human β-globin gene [2]): approximately 10%
2 | 5′-G*T*A* GAAACCATCGGCGCAGCTATTTACCCGCAGGACGTATCCACGCCCTCCTACATCGAAGCTGAAAGCAC*G *A*G-3′ [Hyg3S/74NT] |  | 4.0 | 0.89 ± 1.3 per 10^5 Aureobasidin^R colonies | Hygromycin Alteration Efficiency (/10^5) ([4]; βS-378m Experiment, Mata-intHyg(rep)eGFP/βYAC (HU + TSA)): 12.79 /10^5; Hygromycin Alteration Efficiency (/10^5) ([4]; βS-378m Experiment, Mata-intHyg(rep)eGFP/βYAC + pYNARad51 (HU + TSA)): 96.96 /10^5; Hygromycin Alteration Efficiency (/10^5) ([4]; βS-386m Experiment, Mata-intHyg(rep)eGFP/βYAC (HU + TSA)): 12.35 /10^5; Hygromycin Alteration Efficiency (/10^5) ([4]; βS-386m Experiment, Mata-intHyg(rep)eGFP/βYAC, no HU or TSA): 3.22 /10^5; effect of RAD51 expression on hygromycin correction efficiency [5]: increases
3 | 5′-C*T*C* GTGCTTTCAGCTTCGATGTAGGAGGGCGTGGATACGTCCTGCGGGTAAATAGCTGCGCCGATGGTTTC *T*A*C-3′ [Hyg3S/74T] |  | 1 | 0.22 ± 0.3 per 10^5 Aureobasidin^R colonies | 
4 | 5′-G*C*C* TCACCACCAACTTCATCCACGTTCACCTTGCCTCACAGGGCAGTAACGGCAGACTTCTCCACAGG*A *G*T-3′ [βS-386m] | approximately 10 fold |  |  | 
